14 compounds from US12209071B2, “Triazine derivatives for treating diseases relating to neurotrophins” (AlzeCure Pharma AB, priority 2018, dated 2025) can be followed below.

The target in one assay is T1, TrkA (Homo sapiens, UniProt P04629).
T1 construct: expressed in transfected cells; host or cells: U2OS
Description: Enzyme Fragment Complementation cell-based assay, TrkA. To be noted: U2OS-cells over-expressing TrkA; ligand 10 ng/mL; 3 hours incubation. From the text:
(§1) A high throughput cell-based screen has been used to identify positive modulators of TrkA, TrkB and TrkC. The screen involves the use of cell-based assay overexpressing TrkA, TrkB or TrkC. The purpose of the assay is to identify compounds that modulate neurotrophin signalling (Forsell et al 2012). The assay can be used in inhibitor mode using a high concentration of ligand, in modulator mode using an intermediate concentration and in agonist mode using a low concentration of ligand.
(§2) The assay uses Enzyme Fragment Complementation (EFC) technique, which is a proximity-based assay. Briefly, cells used in this assay over-express two fusion proteins, i.e. the receptor, which can be either one of TrkA, TrkB, TrkC, IGF1R or FGFR1, fused to a small peptide of beta-galactosidase and an adaptor protein, i.e. SHC1 (or any other Trk-adaptor protein) fused to the major part of beta-galactosidase. […] The proximity between the small activating peptide on the receptor and the major part of beta-galactosidase on the adaptor protein leads to an active beta-galactosidase enzyme. The activation of the receptor is quantified by measuring the amount of active beta-galactosidase by its conversion of a non-luminescent substrate into a luminescent product.
(§3) U2OS-cells, over-expressing TrkA or TrkB or TrkC, are plated in 96- or 384-well plates and incubated overnight. Alternatively, cryopreserved HEK293-cells expressing IGFR1 or cryopreserved U2OS-cells expressing FGFR1 were plated in 96- or 384-well plates. On the following day, test compound was pre-mixed with ligand (NGF, BDNF, NT-3, IGF-1 or basic fibroblast growth factor (bFGF(FGF-2))) and the ligand-compound mixture is then added to the cells to yield a final ligand concentration of 10 ng/mL. After 3 hours of incubation at room temperature, the incubation is stopped by the addition of a beta-galactosidase substrate mixture containing detergents. The substrate mixture is incubated for 60 minutes at ambient temperature. The luminescence is thereafter read by the use of a plate reader.

The next assay concerns the target T2, TrkB (Homo sapiens, UniProt Q16620).
T2 construct: expressed in transfected cells; host or cells: U2OS
Description: Enzyme Fragment Complementation cell-based assay, TrkB. To be noted: U2OS-cells over-expressing TrkB; ligand 10 ng/mL; 3 hours incubation.
Source text: as §1, §2, §3

T2 sequence (Q16620 32-822): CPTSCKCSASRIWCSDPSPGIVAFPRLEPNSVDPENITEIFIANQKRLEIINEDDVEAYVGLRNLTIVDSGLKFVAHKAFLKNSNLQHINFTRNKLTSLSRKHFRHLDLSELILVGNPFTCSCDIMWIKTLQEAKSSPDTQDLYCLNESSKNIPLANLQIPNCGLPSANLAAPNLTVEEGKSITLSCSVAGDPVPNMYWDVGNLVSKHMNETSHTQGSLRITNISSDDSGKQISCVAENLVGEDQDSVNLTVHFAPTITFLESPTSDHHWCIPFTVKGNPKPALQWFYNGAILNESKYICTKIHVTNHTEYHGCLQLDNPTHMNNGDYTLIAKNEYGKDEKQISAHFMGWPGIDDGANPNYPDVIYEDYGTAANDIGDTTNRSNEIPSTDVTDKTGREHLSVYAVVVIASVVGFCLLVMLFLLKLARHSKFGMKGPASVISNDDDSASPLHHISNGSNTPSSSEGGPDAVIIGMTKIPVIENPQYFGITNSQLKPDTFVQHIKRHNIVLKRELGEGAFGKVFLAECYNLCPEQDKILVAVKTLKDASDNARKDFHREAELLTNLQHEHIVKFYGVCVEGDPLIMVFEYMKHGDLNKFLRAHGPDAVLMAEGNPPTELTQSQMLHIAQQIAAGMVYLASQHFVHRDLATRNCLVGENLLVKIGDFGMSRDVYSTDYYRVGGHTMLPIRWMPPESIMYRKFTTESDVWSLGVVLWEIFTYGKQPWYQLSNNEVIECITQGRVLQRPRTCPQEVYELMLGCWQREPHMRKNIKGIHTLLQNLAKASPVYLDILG
T1 sequence (P04629 33-796): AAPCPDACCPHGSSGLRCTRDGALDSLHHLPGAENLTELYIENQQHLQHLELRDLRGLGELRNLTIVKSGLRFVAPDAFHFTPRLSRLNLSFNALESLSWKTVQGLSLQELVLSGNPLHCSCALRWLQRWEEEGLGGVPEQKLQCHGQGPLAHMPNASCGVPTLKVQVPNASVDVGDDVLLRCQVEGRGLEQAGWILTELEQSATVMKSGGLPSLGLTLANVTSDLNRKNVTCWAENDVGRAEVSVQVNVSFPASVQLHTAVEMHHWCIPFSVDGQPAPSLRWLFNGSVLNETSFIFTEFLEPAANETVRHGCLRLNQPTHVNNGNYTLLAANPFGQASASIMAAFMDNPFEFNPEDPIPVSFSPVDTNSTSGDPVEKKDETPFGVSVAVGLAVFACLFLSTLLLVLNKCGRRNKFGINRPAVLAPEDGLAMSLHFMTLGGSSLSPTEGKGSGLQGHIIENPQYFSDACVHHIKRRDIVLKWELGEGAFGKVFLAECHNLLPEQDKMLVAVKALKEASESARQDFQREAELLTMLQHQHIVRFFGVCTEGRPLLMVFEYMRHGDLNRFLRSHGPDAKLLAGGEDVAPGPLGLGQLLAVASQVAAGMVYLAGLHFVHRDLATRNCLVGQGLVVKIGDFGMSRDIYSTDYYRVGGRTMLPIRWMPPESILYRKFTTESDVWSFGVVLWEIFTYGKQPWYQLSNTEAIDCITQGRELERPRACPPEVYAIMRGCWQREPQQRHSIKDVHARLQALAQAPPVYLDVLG

With `Cc1cc(-n2c(=O)[nH]c(=O)n(-c3ccc(Oc4ccccc4)c(C)c3)c2=O)ccc1Oc1ccccc1` [Example 67, 1,3-bis(3-methyl-4-phenoxyphenyl)-1,3,5-triazinane-2,4,6-trione], the EC50 on TrkA was 3200 nM; at TrkB it was 26000 nM.

For `COC(=O)c1cc(-n2c(=O)[nH]c(=O)n(-c3ccccc3)c2=O)ccc1Oc1ccccc1` [Example 74, methyl 2-phenoxy-5-(2,4,6-trioxo-3-phenyl-1,3,5-triazinan-1-yl)benzoate], the EC50 at TrkA was found to be 580 nM; at TrkB, 540 nM.

For the compound `COCCOc1cc(-n2c(=O)[nH]c(=O)n(-c3ccc(OC)cc3)c2=O)ccc1Oc1ccccc1` [Example 60, 1-[3-(2-methoxyethoxy)-4-phenoxyphenyl]-3-(4-methoxyphenyl)-1,3,5-triazinane-2,4,6-trione], the EC50 came to 300 nM on TrkA and 220 nM at TrkB.

Take `Cc1cc(-n2c(=O)[nH]c(=O)n(-c3cccc(Cl)c3)c2=O)ccc1Oc1ccccc1` [Example 43, 1-(3-chlorophenyl)-3-(3-methyl-4-phenoxyphenyl)-1,3,5-triazinane-2,4,6-trione]: the values for the EC50 at TrkA and at TrkB were 160 nM and 120 nM, respectively.

For `Cc1cc(-n2c(=O)[nH]c(=O)n(-c3ccccn3)c2=O)ccc1Oc1ccccc1` [Example 18, 1-(3-methyl-4-phenoxyphenyl)-3-(pyridin-2-yl)-1,3,5-triazinane-2,4,6-trione], the concentration giving a half-maximal response (EC50) on TrkA is 870 nM; on TrkB, 140 nM.

Take `O=c1[nH]c(=O)n(-c2ccc(Oc3ccccc3)c(CO)c2)c(=O)n1-c1ccccc1` [Example 75, 1-[3-(hydroxymethyl)-4-phenoxyphenyl]-3-phenyl-1,3,5-triazinane-2,4,6-trione]: the EC50 on TrkA was 1170 nM; at TrkB, 1800 nM.

For `Cc1cc(-n2c(=O)[nH]c(=O)n(-c3ccc4[nH]ccc4c3)c2=O)ccc1Oc1ccccc1` [Example 47, 1-(1H-indol-5-yl)-3-(3-methyl-4-phenoxyphenyl)-1,3,5-triazinane-2,4,6-trione], the EC50 at TrkA was 480 nM; at TrkB, 270 nM.

For the compound `Cc1cc(-n2c(=O)[nH]c(=O)n(-c3cccc4ccoc34)c2=O)ccc1Oc1ccccc1` [Example 73, 1-(1-benzofuran-7-yl)-3-(3-methyl-4-phenoxyphenyl)-1,3,5-triazinane-2,4,6-trione], the EC50 at TrkA was found to be 140 nM; at TrkB, 100 nM.

For `Cc1cc(-n2c(=O)[nH]c(=O)n(-c3ccc(F)cc3)c2=O)ccc1Oc1ccccc1` [Example 45, 1-(4-fluorophenyl)-3-(3-methyl-4-phenoxyphenyl)-1,3,5-triazinane-2,4,6-trione], the EC50 at TrkA came to 470 nM; on TrkB it was 360 nM.

For the compound `COCCOc1cc(-n2c(=O)[nH]c(=O)n(-c3cccc(OC)c3)c2=O)ccc1Oc1ccccc1` [Example 61, 1-[3-(2-methoxyethoxy)-4-phenoxyphenyl]-3-(3-methoxyphenyl)-1,3,5-triazinane-2,4,6-trione], the half-maximal effective concentration (EC50) stood at 420 nM on TrkA and 380 nM on TrkB.

In the case of `COCCOc1cc(-n2c(=O)[nH]c(=O)n(-c3ccc(C)s3)c2=O)ccc1Oc1ccccc1` [Example 66, 1-[3-(2-methoxyethoxy)-4-phenoxyphenyl]-3-(5-methylthiophen-2-yl)-1,3,5-triazinane-2,4,6-trione], the EC50 at TrkA and at TrkB was 370 nM in each case.

For `COc1cc(-n2c(=O)[nH]c(=O)n(-c3ccccc3)c2=O)cc(C)c1Oc1ccccc1` [Example 14, 1-(3-methoxy-5-methyl-4-phenoxyphenyl)-3-phenyl-1,3,5-triazinane-2,4,6-trione], the EC50 on TrkA was 490 nM.

For `COc1cc(-n2c(=O)[nH]c(=O)n(C)c2=O)cc(C)c1Oc1ccccc1` [Example 32, 1-(3-methoxy-5-methyl-4-phenoxyphenyl)-3-methyl-1,3,5-triazinane-2,4,6-trione], the EC50 at TrkA is 800 nM.

At TrkA, `N#Cc1cccc(-n2c(=O)[nH]c(=O)n(-c3ccc(Oc4ccccc4)cc3)c2=O)c1` [Example 3, 3-[2,4,6-trioxo-3-(4-phenoxyphenyl)-1,3,5-triazinan-1-yl]benzonitrile] showed an EC50 of 6700 nM. This EC50 is about 8.4-fold higher than that of the compound before.
